The subject of one data set is cMet in LNCaP cells. Put plainly: cMet expression and phosphorylation (Western blot), LNCaP. The format is cell-based, human. A general note: Immunoblotting shows a protein as a band on a membrane.
The test system of the next data set is cMet in ARCaPE cells. Description: cMet expression and phosphorylation (Western blot), ARCaPE. The format is cell-based, human. As to conditions: exogeneous RANKL or HGF treatment.
Data set [1] addresses Flag-tagged RANKL stably expressed in LNCaP cells (LNCaP-RANKL). Put plainly: cell-based or functional assay.
For a further data set, the system named is ARCaPE-RANKL cells. Description: Pathway inhibitor treatment followed by Western blot analysis, ARCaPE-RANKL. It counts as cell-based, human. As to the method:
(§1) ARCaPE and LNCaP cells were cultured in 6-well plate and at 70% confluency, the cells were serum-starved overnight and then treated with 200 ng/ml of trimerized RANKL in serum-free and phenol-red free RPMI-1640 medium for three days before harvesting the cells. ARCaPE-RANKL and LNCaP-RANKL cells were cultured in 6-well plate and treated with 20 μM of LY294002, a PI3K inhibitor, 20 μM of SB203580, an inhibitor of MAP kinase reactivating kinase, or 2 μM of PS341 (bortezomib), a proteasome inhibitor, at 90% confluency for four hours. Cells were lysed in RIPA buffer containing 1× protease inhibitor cocktail (Thermo Fisher Scientific, Waltham, Mass.) and centrifuged, and the supernatants were collected and quantified using Bradford Protein Assay (Thermo Fisher Scientific, Waltham, Mass.). Cell lysates (20-30 μg) were resolved on a 4-12% Bis-Tris gradient SDS-PAGE (Invitrogen, Carlsbad, Calif.) under reducing conditions, followed by transblotting onto nitrocellulose membrane (BioRad, Hercules, Calif.). The membranes were blocked in 5% non-fat milk in PBST for one hour at room temperature (RT) and incubated with diluted primary antibodies in blocking buffer at 4° C. overnight. The primary antibodies used were RANKL, E-cadherin, vimentin, and OPG (Santa Cruz Biotechnology, Inc., Santa Cruz, Calif.), RANK (Amgen, Thousand Oaks, Calif.), N-cadherin (BD Transduction Laboratories, San Jose, Calif.), phosphor-Akt (Ser 473), Akt, phosphor-p38 (Thr180/Tyr182), p38, phosphor-ERK1/2 (Thr202/Tyr204), ERK, phosphor-SAPK/JNK (Thr183/Tyr185), JNK, phosphor-NF-κB p65 (Ser536), and NF-κB p65 (Cell Signaling Technology, Danvers, Mass.). The membranes were washed with PBST for three times before incubating with peroxidase-conjugated anti-mouse or anti-rabbit secondary antibodies at RT for one hour. After three times washing, the membranes were visualized using ECL Plus reagent (GE Healthcare, Piscataway, N.J.).

Another data set relates to LNCaP-RANKL cells. Description: Pathway inhibitor treatment followed by Western blot analysis, LNCaP-RANKL. It counts as cell-based, human. Particulars: 4 h. As to the method: ARCaPE and LNCaP cells were cultured in 6-well plate and at 70% confluency, the cells were serum-starved overnight and then treated with 200 ng/ml of trimerized RANKL in serum-free and phenol-red free RPMI-1640 medium for three days before harvesting the cells. ARCaPE-RANKL and LNCaP-RANKL cells were cultured in 6-well plate and treated with 20 μM of LY294002, a PI3K inhibitor, 20 μM of SB203580, an inhibitor of MAP kinase reactivating kinase, or 2 μM of PS341 (bortezomib), a proteasome inhibitor, at 90% confluency for four hours. Cells were lysed in RIPA buffer containing 1× protease inhibitor cocktail (Thermo Fisher Scientific, Waltham, Mass.) and centrifuged, and the supernatants were collected and quantified using Bradford Protein Assay (Thermo Fisher Scientific, Waltham, Mass.). Cell lysates (20-30 μg) were resolved on a 4-12% Bis-Tris gradient SDS-PAGE (Invitrogen, Carlsbad, Calif.) under reducing conditions, followed by transblotting onto nitrocellulose membrane (BioRad, Hercules, Calif.). The membranes were blocked in 5% non-fat milk in PBST for one hour at room temperature (RT) and incubated with diluted primary antibodies in blocking buffer at 4° C. overnight. […]

The target in data set [2] is GFP-tagged RANKL stably expressed in ARCaPE cells (ARCaPE-RANKL). Put plainly: cell-based or functional assay.
In a further data set the test system is LNCaP cells. Description: EMT marker / RANKL expression and signaling by RT-PCR and Western blot, LNCaP model. It counts as cell-based, human. As to conditions: 20 μM cMyc inhibitor. The method, then:
Total RNA from cells was isolated using RNeasy Mini Kit (Qiagen, Valencia, Calif.) according to manufacturer's instructions. Complementary DNA (cDNA) was generated from 3 μg of total RNA using SuperScript® III First-Strand Synthesis System (Invitrogen, Carlsbad Calif.), and 1 μl of cDNA was subjected to PCR analyses using the following primers: RANKL F: 5′-TGGATCACAGCACATCAGAGCAG-3′ (SEQ ID NO:3); RANKL R: 5′-TGGGGCTCAATCTATATCTCGAAC-3′ (SEQ ID NO:4); RANK F: 5′-GGGAAAGCACTCACAGCTAATTTG-3′ (SEQ ID NO:5); RANK R: 5′-GCACTGGCTTAAACTGTCATTCTCC-3′ (SEQ ID NO:6); OPG F: 5′-GCT AAC CTC ACC TTC GAG-3′ (SEQ ID NO:7); OPG R: 5′-TGA TTG GAC CTG GTT ACC-3′ (SEQ ID NO:8); E-cadherin F: 5′-GCCAAGCAGCAGTACATTCTACACG-3′ (SEQ ID NO:9); E-cadherin R: 5′-GCTGTTCTTCACGTGCTCAAAATCC-3′ (SEQ ID NO:10); N-cadherin F: 5′-GATGTTGAGGTACAGAATCGT-3′ (SEQ ID NO:11); N-cadherin R: 5′-GGT CGG TCT GGA TGG CGA-3′ (SEQ ID NO:12); Snail F: 5′-CAGACCCACTCAGATGTCAA-3′ (SEQ ID NO:13); Snail R: 5′-CATAGTTAGTCACACCTCGT-3′ (SEQ ID NO:14); Vimentin F: 5′-GGA CTC GGT GGA CTT CTC-3′ (SEQ ID NO:15); Vimentin R: 5′-CGC ATC TCC TCC TCG TAG-3′ (SEQ ID NO:16). The PCR reaction cycles involved an initial denaturation at 94° C. for 10 min, followed by 36 cycles of 94° C., 1 min; 55° C., 30 sec for RANKL and RANK and 48° C., 1 min for OPG; 72° C., 1 min and a final extension at 72° C. for 10 min. For E-cadherin and N-cadherin gene amplification, the PCR reactions ran for a total of 32 cycles and the annealing temperature was 55° C. and 47° C., respectively for 30 sec. For Snail, Vimentin, and GAPDH amplification, the PCR reactions ran for a total of 28 cycles with annealing temperatures at 48° C. for 30 sec. The amplified PCR products were detected and analyzed on 1% agarose gel.
as §1

For data set [3], the system named is RANKL promoter in LNCaP and LNCaP-RANKL cells. Put plainly: RANKL promoter reporter assay, LNCaP model. The format is cell-based, human. Particulars: for RANKL promoter activities in LNCaP cells: vitamin D3 and PTH stimulation. (A reporter such as luciferase makes a cellular process visible.)
Data set [4] concerns RANKL-expressing prostate cancer cells. Description: Stem cell and neuroendocrine marker expression. The format is cell-based.
Data set [5] relates to castration-resistant prostate cancer (CRPC) with bone metastasis; prostate or breast cancers. Particulars: cited from earlier work.
Data set [6] relates to RANKL promoter in ARCaPE, ARCaPM and ARCaPE-RANKL cells. Description: RANKL promoter reporter assay, ARCaP model. It counts as cell-based, human. Particulars: vitamin D3 and PTH stimulation. An excerpt:
(§2) Because the inventors are interested in how RANKL is transcriptionally regulated, the inventors have constructed a 2.5 kb 5′ upstream region of RANKL promoter. The inventors used BAC clones (RP11-86N24) to amplify the promoter region of RANKL from human chromosome 13 contig. The whole promoter region (2.5 kb) was then cloned into pGL3 basic luciferase reporter vector. The inventors placed RANKL promoter reporter into ARCaPE,M, C4-2, and a positive cell line, SaOS-2 to examine the basic promoter activity. Then, the inventors stimulated the RANKL promoter by various growth factors, such as vitamin D3, PTH, and TGFβ.

The test system of data set [7] is RANKL promoter in human osteosarcoma SaOS-2 cells. Put plainly: RANKL promoter reporter assay, SaOS-2. The format is cell-based. As to conditions: exogenous PTH and vitamin D3.
Source text: as §2

[8] abbreviates: 20 μM LY294002 or 2 μM PS341, 4 h.
The mark [9] stands for this setting: men with clinical progressive prostate or breast cancers.

Entries after “also recorded” stand apart in the source; their conditions may differ.

Consider “HGF: HGF, exogenous treatment activating c-Met”, for which, in the data set with cMet in LNCaP cells (addition of HGF), the “p-c-Met expression of the RANKL-induced c-Met” value is “increased”. Further, the “cMet expression and phosphorylated level of cMet in LNCaP cells” value with cMet in LNCaP cells (exogeneous RANKL or HGF treatment) is on record as “significantly increased”. Moreover, the “cMet expression and phosphorylated level of cMet in ARCaPE cells” value in the data set with cMet in ARCaPE cells is “significantly increased”.

As to recombinant osteoprotegerin (OPG), the formation of mature osteoclasts (TRAP+ multinucleated cells) in co-culture of RAW264.7 with LNCaP-RANKL cells in data set [1] was 2 fold.

Regarding `C[S+]([O-])c1ccc(-c2nc(-c3ccncc3)c(-c3ccc(F)cc3)[nH]2)cc1` (stereo not shown) [SB203580], the “phosphorylated level of P65 in ARCaPE-RANKL cells” value in the data set on ARCaPE-RANKL cells (20 μM, 4 h) was “reduction”. In addition, the “phosphorylated level of P65 in LNCaP-RANKL cells” value in the data set on LNCaP-RANKL cells (20 μM) is “reduction”.

“recombinant osteoprotegerin (OPG) (receptor)” displayed a formation of mature osteoclasts (TRAP+ multinucleated cells) in co-culture of RAW264.7 with ARCaPE-RANKL cells in data set [2] of 2 fold.

Consider `CCc1ccc(/C=C2/SC(=S)NC2=O)cc1` [10058-F4, reference compound], for which the “RANKL protein expression in LNCaP-RANKL cells or LNCaP cells treated with RANKL” value in the data set on LNCaP cells is reported as “significantly decreased”. Moreover, the “RANKL transcriptional activity in LNCaP-RANKL cells or LNCaP cells treated with RANKL” value in [3] (20 μM cMyc inhibitor) is given as “significantly decreased”.

As to `CC(C)C[C@H](NC(=O)[C@H](Cc1ccccc1)NC(=O)c1cnccn1)B(O)O` [PS341, bortezomib], the “RANKL-induced EMT in ARCaPE-RANKL cells” value in the data set on ARCaPE-RANKL cells (2 μM, 4 h) is reported as “prevented”. Also, in the data set on ARCaPE-RANKL cells (setting [8]), the “E-cadherin expression in ARCaPE-RANKL cells” value is “increased”; the “vimentin and RANKL expression in ARCaPE-RANKL cells” value is “decreased”. In addition, in the data set on LNCaP-RANKL cells (2 μM), the “RANKL-induced EMT in LNCaP-RANKL cells” value is “prevented”.

As to denosumab, in [4], the “expression of neuroendocrine markers” value is reported as “blocked” and the “expression of stem cell markers” value is “antagonized”. For the same molecule, in data set [5] (human, in vivo), the “osteonecrosis (undesirable side effects)” value is reported as “reported in some patients”. Besides, in data set [5] (setting [9]), the “patients' survival” value was “improved” and the skeletal related events entry is “reduced”. Moreover, in [5] (patients with bone metastasis), the “progression of castration-resistant prostate cancer (CRPC)” value was “delay or prevent”.

Regarding `C=C1CC[C@H](O)C/C1=C/C=C1\CCC[C@]2(C)[C@@H]([C@H](C)CCCC(C)C)CC[C@@H]12` [vitamin D3, reference compound], the “RANKL promoter activities in ARCaPE cells” value in data set [6] is listed as “induced”. Further, the “RANKL promoter activities in LNCaP cells” value in data set [3] is recorded as “induced”. In addition, the “RANKL transcriptional (promoter) activity in SaOS-2 cells” value in [7] is listed as “induced; also recorded: up-regulated”.

B1: parathyroid hormone (protein, UniProt P01270 32-115, looked up)
Parathyroid hormone: SVSEIQLMHNLGKHLNSMERVEWLRKKLQDVHNFVALGAPLAPRDAGSQRPRKKEDNVLVESHEKSLGEADKADVNVLTKAKSQ
modifications: Parathyroid hormone
With B1, the “RANKL promoter activities in ARCaPE cells” value in [6] is recorded as “induced”. Further, in [3], the “RANKL promoter activities in LNCaP cells” value was “induced”. Besides, the “RANKL transcriptional (promoter) activity in SaOS-2 cells” value in data set [7] was “induced; also recorded: up-regulated”.
